Test results: PubChem BioAssay (NCI)
Where “and” joins values, the source holds several entries; their conditions need not be identical. Equal values may be shown once.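 Grown in 96-well plates, cells were treated for 48 hours with each compound at five concentrations. Insufficient inhibition: endpoint recorded as highest concentration tested. Here, GI50 denotes the concentration required for 50% inhibition of growth. The concentration for full growth arrest is given as TGI.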

Tests used:
Test in all cases: NCI anticancer screen, dose series, 48 h
DU-145 prostate = test system: DU-145 prostate
IGROV1 ovarian = test system: IGROV1 ovarian
K-562 leukemia = test system: K-562 leukemia
MALME-3M melanoma = test system: MALME-3M melanoma
MDA-MB-231 breast = test system: MDA-MB-231 breast
NCI-H522 lung = test system: NCI-H522 lung
SK-MEL-2 melanoma = test system: SK-MEL-2 melanoma
SK-MEL-28 melanoma = test system: SK-MEL-28 melanoma
SN12C renal = test system: SN12C renal
TK-10 renal = test system: TK-10 renal

Row | SMILES | GI50 (DU-145 prostate) | TGI (DU-145 prostate) [µM] | GI50 (IGROV1 ovarian) | TGI (IGROV1 ovarian) | GI50 (K-562 leukemia) | TGI (K-562 leukemia) [µM] | GI50 (MALME-3M melanoma) | TGI (MALME-3M melanoma) [µM] | GI50 (MDA-MB-231 breast) | TGI (MDA-MB-231 breast) | GI50 (NCI-H522 lung) | TGI (NCI-H522 lung) | GI50 (SK-MEL-2 melanoma) | TGI (SK-MEL-2 melanoma) | GI50 (SK-MEL-28 melanoma) | TGI (SK-MEL-28 melanoma) | GI50 (SN12C renal) | TGI (SN12C renal) | GI50 (TK-10 renal) | TGI (TK-10 renal) [µM]
1 | COc1cccc2c1C(=O)c1c(O)c3c(c(O)c1C2=O)CC(O)(/C(C)=N/NC(=O)CCC(=O)N/N=C(\C)C1(O)Cc2c(O)c4c(c(O)c2C(OC2CC(N)C(O)C(C)O2)C1)C(=O)c1c(OC)cccc1C4=O)CC3OC1CC(N)C(O)C(C)O1 (stereo unspecified) | 0.302 µM | 2.97 | 0.108 µM | 1.08 µM | 0.341 µM | 7.69 | 0.285 µM | 1.12 | 1.17 µM | > 50 µM | 0.0503 µM | 0.327 µM | 0.111 µM | 0.343 µM | 0.371 µM | 1.35 µM | 0.234 µM | > 50 µM | 0.574 µM | 6.69
2 | C[C@H]1Oc2cc(cnc2N)-c2c(nn(C)c2C#N)CN(C)C(=O)c2ccc(F)cc21 | 26.6 µM | > 100 | 28.1 µM | > 100 µM | > 100 µM | > 100 | 18.8 µM | > 100 | 18.1 µM | > 100 µM | 57 µM | > 100 µM | 78 µM | > 100 µM | 50.3 µM | > 100 µM | 43.1 µM | > 100 µM | 36.5 µM | > 100
3 | O=c1[nH]c(=O)n(C2CC(O)C(CO)O2)cc1CO (stereo unspecified) | > 100 µM | > 100 | > 100 µM | > 100 µM | > 100 µM | > 100 | > 100 µM | > 100 | – | – | > 100 µM | > 100 µM | > 100 µM | > 100 µM | > 100 µM | > 100 µM | 91.7 µM | > 100 µM | > 100 µM | > 100
4 | Ic1ccc(-n2nnnc2-c2cnoc2-c2ccccc2)cc1 | 5.99 µM | > 100 | > 73.6 µM | > 100 µM | 29.2 µM | > 66.6 | > 44.2 µM | > 73.6 | > 51.9 µM | > 91.2 µM | 46.3 µM | > 100 µM | > 94 µM | > 100 µM | > 62.2 µM | > 100 µM | 48.9 µM | > 88.3 µM | 41.5 µM | > 82.3
5 | O=C(c1c(F)ccc(NS(=O)(=O)N2CC[C@@H](F)C2)c1F)c1c[nH]c2ncc(-c3cnc(C4CC4)nc3)cc12 | 6.03 µM and 5.37 µM | > 76.8 | 2.35 µM and 2.14 µM | > 10 µM and 17 µM | 3.68 µM and 3.12 µM | > 100 | 0.00378 µM and < 0.01 µM | < 0.043 | 2.88 µM and 3.47 µM | > 10 µM and 46.8 µM | 3.05 µM and 4.34 µM | > 10 µM and 22.7 µM | 2.17 µM and 3.25 µM | > 8.34 µM and 15.7 µM | 0.00375 µM and < 0.01 µM | 0.194 µM and 0.599 µM | 4.89 µM and 4.81 µM | > 10 µM and 54.2 µM | 3.53 µM and 8.03 µM | > 66.9
6 | CCCCCCNC(=O)c1nc(-c2ccccc2)oc1Cc1ccc(OP(=O)(O)O)cc1 | 10.2 µM | 22.3 | 15.2 µM | 31.2 µM | 22.6 µM | 64 | 19.3 µM | 37 | 17.2 µM | 36.6 µM | 16.1 µM | 34.5 µM | 19 µM | 37.1 µM | 15.9 µM | 30.1 µM | 17 µM | 32.9 µM | 16.9 µM | 32.9
7 | Cc1c(Cl)cccc1N1C(=O)C(Cl)=C(Cl)C1=O | – | – | – | > 100 µM | – | > 31.6 | – | > 100 | – | – | – | 27.9 µM | – | > 100 µM | – | > 100 µM | – | > 100 µM | – | > 100
8 | CCN(CC)CCOc1ccc(/C=C2\CC3C4CC=C5C[C@@H](O)CC[C@]5(C)C4CC[C@]3(C)C2=O)cc1OC (stereo partly specified) | 9.51 µM | 21.4 | 2.94 µM | 7.72 µM | 3.09 µM | > 38.2 | 2.01 µM | 12.3 | 2.31 µM | 7.38 µM | 3.57 µM | 14 µM | 7.27 µM | 78.3 µM | 9.61 µM | 73.4 µM | 3.54 µM | 19.4 µM | 9.94 µM | 21.5
9 | NS(=O)(=O)c1ccc(N(/C=C/C(=O)C(F)(F)F)CC(=O)c2ccc(Cl)cc2)cc1 | 93.3 µM | > 100 | 22.5 µM | 81.7 µM | 33.5 µM | 93.6 | 24.9 µM | 92.6 | 36.3 µM | > 100 µM | 24.3 µM | 72.2 µM | 38.1 µM | > 100 µM | > 100 µM | > 100 µM | 29.3 µM | > 100 µM | 29.7 µM | 87.8
10 | Nc1c(C(=O)Nc2cccc(Br)c2)sc2nc3c(cc12)C(=O)CCC3 | 0.426 µM | > 61.6 | 1.73 µM | > 100 µM | 0.14 µM | > 100 | 0.579 µM | > 100 | 1.68 µM | 61.1 µM | 0.248 µM | – | – | – | – | > 100 µM | 0.779 µM | > 100 µM | 13.9 µM | > 100
11 | CCOC(=O)C1(c2ccccc2)CCC(=O)CC1 | – | – | – | > 100 µM | – | > 100 | – | > 100 | – | – | – | > 100 µM | – | > 100 µM | – | > 100 µM | – | > 100 µM | – | > 100
12 | C=CCc1cccc(/C=N/NC(=O)CN2CCN(Cc3ccccc3)CC2)c1O | 1.79 µM | 13.4 | 0.483 µM | 3.13 µM | 1.87 µM | 11 | 5.79 µM | 19.8 | 2.49 µM | 15.5 µM | – | – | 2.31 µM | 11.5 µM | 2.43 µM | 15.5 µM | 4.4 µM | 18.9 µM | 0.925 µM | 15.1
13 | CCOC(=O)C(=Cc1cccc(Cl)c1)C(=O)OCC | 2.21 µM | 5.4 | 2.4 µM | 7.85 µM | 3.18 µM | > 100 | – | – | 2.35 µM | 5.04 µM | 1.53 µM | 3.21 µM | 2.1 µM | 4.24 µM | 1.62 µM | 3.26 µM | 1.65 µM | 3.54 µM | 2.46 µM | 6.08
